Measured values published in patent publication US20260283999A1, “STAT3 INHIBITOR TO TREAT SU[…]” (UNIVERSITY OF FLORIDA RESEARCH FOUNDATION, INCORPORATED, priority 2022, published 2026).

Columns and labels:
SAH model [1] = test: Cerebral blood flow by laser speckle perfusion imaging after SAH; assay type: in vivo; conditions: mice, 48 hours after SAH; 5 mg/kg repetitive dosing following SAH; FIG. 3
Method: (§1) Studies were conducted wherein repetitive dosing on days 1, 2, and 3 following SAH occurred with 5 mg/kg of the p-STAT3 inhibitor. […] The STAT inhibitor used in these studies was LLL12B.
The SAH model utilized modified autologous blood injection to basal cisterns adjacent to right anterior circulation. [Dodd W S, Noda I, Martinez M, Hosaka K, Hoh BL. NLRP3 inhibition attenuates early brain injury and delayed cerebral vasospasm after subarachnoid hemorrhage. J Neuroinflammation. 2021; 18 (1): 163.]. Briefly, mice we anesthetized with 10 mg/kg xylazine and 100 mg/kg ketamine prior to shaving/cleaning the scalp. The tail was prepped, shaved, and cleaned. The mouse's head was fixed to the stereotaxic frame and body temperature maintained at 37° C. using a heating pad. […] The mouse's respiratory rate was closely monitored. […]
Four mice per group were utilized. Cerebral blood flow was measured with a laser speckle perfusion imager at 48 hours after SAH. […] Sufficient readings were able to be achieved without bone flap removal. […] Average perfusion per animal was documented and an imaging voxel with a calculated mean of 9.7 was used to measure bilateral MCA territory perfusion. A ratio of right to left MCA perfusion was calculated for each animal to allow reliable comparisons between groups and to control for variance in baseline blood pressure differences. […]

SAH model [2] = test: Immunohistochemistry of brain slices after SAH (p-STAT3, Arg1, Cox2, iNOS, TLR-4); assay type: in vivo; conditions: mice, following SAH; 5 mg/kg on days 1, 2, and 3 following SAH
Method: as §1
The SAH model utilized modified autologous blood injection to basal cisterns adjacent to right anterior circulation. [Dodd W S, Noda I, Martinez M, Hosaka K, Hoh BL. NLRP3 inhibition attenuates early brain injury and delayed cerebral vasospasm after subarachnoid hemorrhage. J Neuroinflammation. 2021; 18 (1): 163.]. Briefly, mice we anesthetized with 10 mg/kg xylazine and 100 mg/kg ketamine prior to shaving/cleaning the scalp. The tail was prepped, shaved, and cleaned. The mouse's head was fixed to the stereotaxic frame and body temperature maintained at 37° C. using a heating pad. The scalp was incised along the sagittal suture from bregma to the nasal bone. The skin was reflected and held in place by retraction. The burr hole was positioned 5.0 mm rostral to bregma and 0.5 mm right of midline. Next, 150 μL of arterial blood was drawn from the tail artery. 50 μL of blood was drawn up into a Hamilton syringe. The syringe needle was passed at a 30° caudal angle until it reached the skull base. The syringe was left in place and blood was manually injected at a rate of 10 μL/min. The mouse's respiratory rate was closely monitored. […]

Question: Which results are given for `CN(C)C(=O)Oc1cccc2c1C(=O)c1cccc(S(N)(=O)=O)c1C2=O` [LLL12B]?
Answer: cerebral blood flow (SAH model [1]): protective benefit for cerebral blood flow showing decreased risk for ischemia; systemic neuroinflammation (immunochemistry) (SAH model [2]): reduces systemic neuroinflammation
